pIC50: −log10 of the molar value.
Legend:
cIAP2-BIR2 = cIAP2-BIR2 (Homo sapiens (Human), UniProt Q13489); test: BIR binding assay (FRET competition), cIAP2 BIR2
Outline: (§1)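 His-tagged domains (50 nM cIAP1-BIR3, 325 nM cIAP2-BIR2, 325 nM cIAP1-BIR2, 100 nM XIAP-BIR3) compete with compounds for a 200 nM AlexaFluor647-labelled SMAC/DIABLO peptide in HEPES buffer, pH 7.4, for 60 min. Then 2 nM Eu-W1024 is added for 30 min. The 615/665 nm ratio is fit by four-parameter fit to give IC50.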

cIAP1-BIR2 = cIAP1-BIR2 (Homo sapiens (Human), UniProt Q13490); test: BIR binding assay (FRET competition), cIAP1 BIR2
Outline: as §1

cIAP1-BIR3 = cIAP1-BIR3 (Homo sapiens (Human), UniProt Q13490); test: BIR binding assay (FRET competition), cIAP1 BIR3; settings: for cIAP1 BIR3 vs BIR2 separation window: fold separation (FS) for cIAP1
Outline: as §1

cIAP2-BIR3 = cIAP2-BIR3 (Homo sapiens (Human), UniProt Q13489); test: BIR binding assay (FRET competition), cIAP2 BIR3; settings: for cIAP2 BIR3 vs BIR2 separation window: fold separation (FS) for cIAP2
XIAP-BIR3 = XIAP-BIR3 (Homo sapiens (Human), UniProt P98170); test: BIR binding assay (FRET competition), XIAP BIR3; settings: for XIAP BIR3 vs BIR2 separation window: fold separation (FS) for XIAP
Outline: as §1

[1] = tested on: Jurkat HIV-luciferase clones; test: Jurkat latency reversal assay; assay type: cell-based; settings: Homo sapiens, 48 h; Jurkat latency reversal assay potency; read-out: Jurkat pEC50 (converted)
Outline: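 Three pooled Jurkat reporter clones, each with one or two integrated HIV-luciferase proviruses, 5,000 cells/well; duplicate 14-point titrations starting at 10 μM; 48 h, 37° C, then Steady-Glo luminescence; four-parameter logistic analysis yields EC50 and percent maximal activation against DMSO vehicle.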

XIAP-BIR2 = XIAP-BIR2 (Homo sapiens (Human), UniProt P98170); test: BIR binding assay (FRET competition), XIAP BIR2; settings: FRET competition binding; read-out: XIAP BIR2 (pIC50) (converted)
Outline: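 Compounds in a 15-point, 3-fold series competed with an AlexaFluor647 SMAC peptide (AVPIAQKSE, 200 nM) for 200 nM His-tagged XIAP-BIR2 over 60 min in pH 7.4 HEPES/CHAPS/DTT buffer. Eu-W1024 (2 nM) was then added for 30 min. IC50 and pIC50 were derived from the 615 nm/665 nm emission ratio by variable-slope fit.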

XIAP-BIR2, sequence (P98170 124-240): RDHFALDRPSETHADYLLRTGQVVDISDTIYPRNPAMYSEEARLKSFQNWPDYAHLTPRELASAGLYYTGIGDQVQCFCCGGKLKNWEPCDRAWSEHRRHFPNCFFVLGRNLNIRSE
cIAP2-BIR3, sequence (Q13489 238-349): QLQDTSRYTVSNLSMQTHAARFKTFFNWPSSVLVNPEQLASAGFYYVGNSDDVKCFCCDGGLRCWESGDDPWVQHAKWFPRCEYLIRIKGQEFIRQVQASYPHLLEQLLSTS
cIAP1-BIR2, sequence (Q13490 173-257): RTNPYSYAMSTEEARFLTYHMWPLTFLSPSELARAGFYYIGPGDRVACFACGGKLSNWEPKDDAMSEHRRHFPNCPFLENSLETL
cIAP1-BIR3, sequence (Q13490 253-363): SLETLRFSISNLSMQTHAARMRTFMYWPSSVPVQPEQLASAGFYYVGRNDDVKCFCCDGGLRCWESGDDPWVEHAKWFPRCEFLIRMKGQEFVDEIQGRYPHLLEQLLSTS
cIAP2-BIR2, sequence (Q13489 158-242): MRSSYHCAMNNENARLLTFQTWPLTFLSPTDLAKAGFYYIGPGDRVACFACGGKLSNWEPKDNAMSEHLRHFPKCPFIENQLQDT
XIAP-BIR3, sequence (P98170 241-356): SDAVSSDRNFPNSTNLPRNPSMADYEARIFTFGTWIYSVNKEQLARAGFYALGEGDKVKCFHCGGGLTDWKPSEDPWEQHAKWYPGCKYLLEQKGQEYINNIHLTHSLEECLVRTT

C[C@@H]1CN(CC(=O)N2CC(C)(C)c3[nH]c(=O)c(Cc4ccc(F)cc4)cc32)[C@@H](CN2CCC(CN(C)C(=O)Cc3ccc(C(=O)N(C)CC4CCN(C[C@H]5CN[C@H](C)CN5CC(=O)N5CC(C)(C)c6[nH]c(=O)c(Cc7ccc(F)cc7)cc65)CC4)cc3)CC2)CN1 [Example 97, N-((1-(((2R,5R)-1-(2-(6-(4-fluorobenzyl)-3,3-dimethyl-5-oxo-2,3,4,5-tetrahydro-1H-pyrrolo[3,2-b]pyridin-1-yl)-2-oxoethyl)-5-methylpiperazin-2-yl)methyl)piperidin-4-yl)methyl)-4-(2-(((1-(((2R,5R)-1-(2-(6-(4-fluorobenzyl)-3,3-dimethyl-5-oxo-2,3,4,5-tetrahydro-1H-pyrrolo[3,2-b]pyridin-1-yl)-2-oxoethyl)-5-methylpiperazin-2-yl)methyl)piperidin-4-yl)methyl)(methyl)amino)-2-oxoethyl)-N-methylbenzamide]
pIC50 (cIAP2-BIR2): 5.00 to 5.50 | pIC50 (cIAP1-BIR2): 5.50 to 6.00 | pIC50 (cIAP1-BIR3): 8.10 to 8.86 | cIAP1 BIR3 vs BIR2 separation window (cIAP1-BIR3): ++++ (FS>10,000) | pIC50 (cIAP2-BIR3): 8.10 to 8.86 | cIAP2 BIR3 vs BIR2 separation window (cIAP2-BIR3): +++ (10,000>FS>1,000) | pIC50 (XIAP-BIR3): 7.80 to 8.10 | XIAP BIR3 vs BIR2 separation window (XIAP-BIR3): ++++ (FS>10,000) | EC50 [1]: 63.1 to 316 nM | IC50 (XIAP-BIR2): 10000 to 51300 nM

C[C@@H]1CN(CC(=O)N2CC(C)(C)c3[nH]c(=O)c(Cc4ccc(F)cc4)cc32)[C@@H](CN2CCC(CN(C)C(=O)Cc3cccc(C(=O)N(C)CC4CCN(C[C@H]5CN[C@H](C)CN5CC(=O)N5CC(C)(C)c6[nH]c(=O)c(Cc7ccc(F)cc7)cc65)CC4)c3)CC2)CN1 [Example 98, N-((1-(((2R,5R)-1-(2-(6-(4-fluorobenzyl)-3,3-dimethyl-5-oxo-2,3,4,5-tetrahydro-1H-pyrrolo[3,2-b]pyridin-1-yl)-2-oxoethyl)-5-methylpiperazin-2-yl)methyl)piperidin-4-yl)methyl)-3-(2-(((1-(((2R,5R)-1-(2-(6-(4-fluorobenzyl)-3,3-dimethyl-5-oxo-2,3,4,5-tetrahydro-1H-pyrrolo[3,2-b]pyridin-1-yl)-2-oxoethyl)-5-methylpiperazin-2-yl)methyl)piperidin-4-yl)methyl)(methyl)amino)-2-oxoethyl)-N-methylbenzamide]
pIC50 (cIAP2-BIR2): 4.29 to 5.00 | pIC50 (cIAP1-BIR2): 5.50 to 6.00 | pIC50 (cIAP1-BIR3): 8.10 to 8.86 | cIAP1 BIR3 vs BIR2 separation window (cIAP1-BIR3): +++ (10,000>FS>1,000) | pIC50 (cIAP2-BIR3): 8.10 to 8.86 | cIAP2 BIR3 vs BIR2 separation window (cIAP2-BIR3): +++ (10,000>FS>1,000) | pIC50 (XIAP-BIR3): 7.80 to 8.10 | XIAP BIR3 vs BIR2 separation window (XIAP-BIR3): ++++ (FS>10,000) | EC50 [1]: 63.1 to 316 nM | IC50 (XIAP-BIR2): 10000 to 51300 nM

C[C@@H]1CN(CC(=O)N2CC(C)(C)c3[nH]c(=O)c(Cc4ccc(F)cc4)cc32)[C@@H](CN2CCC(CN(C)C(=O)Cc3ccc(CC(=O)N(C)CC4CCN(C[C@H]5CN[C@H](C)CN5CC(=O)N5CC(C)(C)c6[nH]c(=O)c(Cc7ccc(F)cc7)cc65)CC4)cc3)CC2)CN1 [Example 99, 2,2′-(1,4-phenylene)bis(N-((1-(((2R,5R)-1-(2-(6-(4-fluorobenzyl)-3,3-dimethyl-5-oxo-2,3,4,5-tetrahydro-1H-pyrrolo[3,2-b]pyridin-1-yl)-2-oxoethyl)-5-methylpiperazin-2-yl)methyl)piperidin-4-yl)methyl)-N-methylacetamide)]
pIC50 (cIAP2-BIR2): 5.00 to 5.50 | pIC50 (cIAP1-BIR2): 5.00 to 5.50 | pIC50 (cIAP1-BIR3): 8.10 to 8.86 | cIAP1 BIR3 vs BIR2 separation window (cIAP1-BIR3): +++ (10,000>FS>1,000) | pIC50 (cIAP2-BIR3): 7.80 to 8.10 | cIAP2 BIR3 vs BIR2 separation window (cIAP2-BIR3): +++ (10,000>FS>1,000) | pIC50 (XIAP-BIR3): 7.80 to 8.10 | XIAP BIR3 vs BIR2 separation window (XIAP-BIR3): ++++ (FS>10,000) | EC50 [1]: 63.1 to 316 nM | IC50 (XIAP-BIR2): 10000 to 51300 nM

C[C@@H]1CN(CC(=O)N2CC(C)(C)c3[nH]c(=O)c(Cc4ccc(F)cc4)cc32)[C@@H](CN2CCC(CN(C)Cc3ccc(CN(C)CC4CCN(C[C@H]5CN[C@H](C)CN5CC(=O)N5CC(C)(C)c6[nH]c(=O)c(Cc7ccc(F)cc7)cc65)CC4)cc3)CC2)CN1 [Example 100, 1,1′-(2,2′-((3R,3′R,6R,6′R)-(((((1,4-phenylenebis(methylene))bis(methylazanediyl))bis(methylene))bis(piperidine-4,1-diyl))bis(methylene))bis(3-methylpiperazine-6,1-diyl))bis(acetyl))bis(6-(4-fluorobenzyl)-3,3-dimethyl-1,2,3,4-tetrahydro-5H-pyrrolo[3,2-b]pyridin-5-one)]
pIC50 (cIAP2-BIR2): 5.00 to 5.50 | pIC50 (cIAP1-BIR2): 5.50 to 6.00 | pIC50 (cIAP1-BIR3): 7.80 to 8.10 | cIAP1 BIR3 vs BIR2 separation window (cIAP1-BIR3): +++ (10,000>FS>1,000) | pIC50 (cIAP2-BIR3): 7.80 to 8.10 | cIAP2 BIR3 vs BIR2 separation window (cIAP2-BIR3): +++ (10,000>FS>1,000) | pIC50 (XIAP-BIR3): 7.50 to 7.80 | XIAP BIR3 vs BIR2 separation window (XIAP-BIR3): ++++ (FS>10,000) | EC50 [1]: 0.49 to 12.6 nM | IC50 (XIAP-BIR2): 10000 to 51300 nM

C[C@@H]1CN(CC(=O)N2CC(C)(C)c3[nH]c(=O)c(Cc4ccc(F)cc4)cc32)[C@@H](CN2CCC(CNC(=O)c3ccc(C(=O)NCC4CCN(C[C@H]5CN[C@H](C)CN5CC(=O)N5CC(C)(C)c6[nH]c(=O)c(Cc7ccc(F)cc7)cc65)CC4)cc3)CC2)CN1 [Example 101, N^1,N^4-bis((1-(((2R,5R)-1-(2-(6-(4-fluorobenzyl)-3,3-dimethyl-5-oxo-2,3,4,5-tetrahydro-1H-pyrrolo[3,2-b]pyridin-1-yl)-2-oxoethyl)-5-methylpiperazin-2-yl)methyl)piperidin-4-yl)methyl)terephthalamide]
pIC50 (cIAP2-BIR2): 5.00 to 5.50 | pIC50 (cIAP1-BIR2): 5.00 to 5.50 | pIC50 (cIAP1-BIR3): 8.10 to 8.86 | cIAP1 BIR3 vs BIR2 separation window (cIAP1-BIR3): +++ (10,000>FS>1,000) | pIC50 (cIAP2-BIR3): 8.10 to 8.86 | cIAP2 BIR3 vs BIR2 separation window (cIAP2-BIR3): ++++ (FS>10,000) | pIC50 (XIAP-BIR3): 7.80 to 8.10 | XIAP BIR3 vs BIR2 separation window (XIAP-BIR3): ++++ (FS>10,000) | EC50 [1]: 63.1 to 316 nM | IC50 (XIAP-BIR2): 10000 to 51300 nM

C[C@@H]1CN(CC(=O)N2CC(C)(C)c3[nH]c(=O)c(Cc4ccc(F)cc4)cc32)[C@@H](CN2CCC(CNC(=O)Cc3ccc(CC(=O)NCC4CCN(C[C@H]5CN[C@H](C)CN5CC(=O)N5CC(C)(C)c6[nH]c(=O)c(Cc7ccc(F)cc7)cc65)CC4)cc3)CC2)CN1 [Example 102, 2,2′-(1,4-phenylene)bis(N-((1-(((2R,5R)-1-(2-(6-(4-fluorobenzyl)-3,3-dimethyl-5-oxo-2,3,4,5-tetrahydro-1H-pyrrolo[3,2-b]pyridin-1-yl)-2-oxoethyl)-5-methylpiperazin-2-yl)methyl)piperidin-4-yl)methyl)acetamide)]
pIC50 (cIAP2-BIR2): 5.00 to 5.50 | pIC50 (cIAP1-BIR2): 5.00 to 5.50 | pIC50 (cIAP1-BIR3): 7.80 to 8.10 | cIAP1 BIR3 vs BIR2 separation window (cIAP1-BIR3): +++ (10,000>FS>1,000) | pIC50 (cIAP2-BIR3): 7.80 to 8.10 | cIAP2 BIR3 vs BIR2 separation window (cIAP2-BIR3): ++++ (FS>10,000) | pIC50 (XIAP-BIR3): 7.80 to 8.10 | XIAP BIR3 vs BIR2 separation window (XIAP-BIR3): ++++ (FS>10,000) | EC50 [1]: 63.1 to 316 nM | IC50 (XIAP-BIR2): 10000 to 51300 nM

C[C@@H]1CN(CC(=O)N2CC(C)(C)c3[nH]c(=O)c(Cc4ccc(F)cc4)cc32)[C@@H](CN2CCC(CCNC(=O)c3ccc(C(=O)NCCC4CCN(C[C@H]5CN[C@H](C)CN5CC(=O)N5CC(C)(C)c6[nH]c(=O)c(Cc7ccc(F)cc7)cc65)CC4)cc3)CC2)CN1 [Example 103, N^1,N^4-bis(2-(1-(((2R,5R)-1-(2-(6-(4-fluorobenzyl)-3,3-dimethyl-5-oxo-2,3,4,5-tetrahydro-1H-pyrrolo[3,2-b]pyridin-1-yl)-2-oxoethyl)-5-methylpiperazin-2-yl)methyl)piperidin-4-yl)ethyl)terephthalamide]
pIC50 (cIAP2-BIR2): 5.00 to 5.50 | pIC50 (cIAP1-BIR2): 5.00 to 5.50 | pIC50 (cIAP1-BIR3): 7.80 to 8.10 | cIAP1 BIR3 vs BIR2 separation window (cIAP1-BIR3): +++ (10,000>FS>1,000) | pIC50 (cIAP2-BIR3): 7.80 to 8.10 | cIAP2 BIR3 vs BIR2 separation window (cIAP2-BIR3): +++ (10,000>FS>1,000) | pIC50 (XIAP-BIR3): 7.80 to 8.10 | XIAP BIR3 vs BIR2 separation window (XIAP-BIR3): ++++ (FS>10,000) | EC50 [1]: 63.1 to 316 nM | IC50 (XIAP-BIR2): 10000 to 51300 nM

C[C@@H]1CN(CC(=O)N2CC(C)(C)c3[nH]c(=O)c(Cc4ccc(F)cc4)cc32)[C@@H](CN2CCC(CCN(C)C(=O)c3ccc(C(=O)N(C)CCC4CCN(C[C@H]5CN[C@H](C)CN5CC(=O)N5CC(C)(C)c6[nH]c(=O)c(Cc7ccc(F)cc7)cc65)CC4)cc3)CC2)CN1 [Example 104, N^1,N^4-bis(2-(1-(((2R,5R)-1-(2-(6-(4-fluorobenzyl)-3,3-dimethyl-5-oxo-2,3,4,5-tetrahydro-1H-pyrrolo[3,2-b]pyridin-1-yl)-2-oxoethyl)-5-methylpiperazin-2-yl)methyl)piperidin-4-yl)ethyl)-N^1,N^4-dimethylterephthalamide]
pIC50 (cIAP2-BIR2): 5.50 to 6.00 | pIC50 (cIAP1-BIR2): 5.50 to 6.00 | pIC50 (cIAP1-BIR3): 8.10 to 8.86 | cIAP1 BIR3 vs BIR2 separation window (cIAP1-BIR3): +++ (10,000>FS>1,000) | pIC50 (cIAP2-BIR3): 8.10 to 8.86 | cIAP2 BIR3 vs BIR2 separation window (cIAP2-BIR3): +++ (10,000>FS>1,000) | pIC50 (XIAP-BIR3): 8.10 to 8.86 | XIAP BIR3 vs BIR2 separation window (XIAP-BIR3): ++++ (FS>10,000) | EC50 [1]: 63.1 to 316 nM | IC50 (XIAP-BIR2): 10000 to 51300 nM
